According to patent US20030124127A1, “Targeting leukemia cells” (priority 2001, published 2003):

Columns and labels:
[1] = tested on: normal and malignant lymphocytes; settings: clinical studies; cited from earlier work
[2] = cited from earlier work
NB4 cells [3] = experiment: ATRA-induced NB4 cell differentiation (morphology, CD11B/CD16 flow cytometry, NBT reduction test); format: cell-based, human; settings: 1 μM ATRA
Description: (§1) Leukemia cell lines. NB4 cells were a gift (Dr. James R. Downing, St. Jude Children's Research Hospital) and other leukemia cell lines (K562, U937 and HL-60) were purchased from ATCC (Manassas, Va.). All leukemia cell lines were cultured in RPMI 1640 medium plus 10% fetal calf serum. Cells (1×10^6) were treated with or without 1 μM ATRA (Sigma, St. Louis, Mo.) for 12, 24, 48, 72, and 96 hours at 37° C. in a 5% CO2 incubator in darkness. All experiments were repeated three times.
(§2) Assessment of cell differentiation. ATRA-induced NB4 cell differentiation was evaluated by morphological assessment, by flow cytometry for expression of cell surface antigens related to granulocytic differentiation and maturation such as CD11B/CD18-integrins (Gahmberg C G, Curr. Opin. Cell Biol. 9: 643-650, 1997) and by the nitroblue tetrazolium (NBT) reduction test, which measures myelocyte maturity (Idres N et al., Cancer Res. 61: 700-705, 2001). For cell cycle analysis, the cells were stained with propidium iodide (PI) and analyzed by a fluorescence-activated cell sorting analysis.

NB4 cells [4] = experiment: Cell cycle analysis of ATRA-treated NB4 cells (propidium iodide, flow cytometry); format: cell-based, human; settings: 1 μM ATRA, 12-96 hrs, PI staining
Description: as §1, §2

NB4 cells [5] = experiment: RT-PCR analysis of CD52 mRNA in NB4 cells; format: cell-based, human; settings: ATRA 12-96 hr, not detectable in untreated cells
Description: (§3) Reverse transcriptase (RT)-PCR. NB4 cells were cultured and treated with or without ATRA as described above. Some assays were performed using other cell lines including the erythroblastic leukemia cell line K562, the monocytic leukemia cell line U937 and the HL-60 cell line, a human myeloblastic leukemia cell line lacking the t(15; 17) translocation. Total RNA was isolated from the cells and used for CD52 cDNA synthesis by RT-PCR. The cDNA was synthesized in a 20 μl reaction mixture containing 5 μg RNA, 5 mM dNTP, 0.1 μg random primers and 200 U reverse transcriptase, and the mixture was incubated at 42° C. for 1 hr. The cDNA was amplified for 30 cycles with denaturation at 94° C. for 30 seconds, annealing at 56° C. for 30 seconds and extension at 72° C. for 1 min. Amplified products were sequenced and confirmed by comparison with sequence data from GenBank.

NB4 cells [6] = experiment: Western blot analysis of CD52 protein in NB4 cells; format: cell-based, human; settings: ATRA-treated vs untreated
Description: Western blot analysis. Cell lysates from control and ATRA-treated NB4 cells were separated on a 4%-20% gradient SDS-polyacrylamide gel and then transferred to PVDF membrane (Millipore, Bedford, Mass.) using a semidry electroblot chamber. The membrane was blocked overnight with 5% dry-milk in Tris-buffered saline and then incubated with anti-CD52 antibody (Serotec, Inc., Raleigh, N.C.) for 1 hour at room temperature. The binding of primary antibody was detected by using peroxidase-coupled second antibody (Sigma). Bound peroxidase was detected by the Super Signal Substrate (Pierce, Rockford, Ill.).

[7] = tested on: monocytic leukemia cell line U937; experiment: Cell specificity of CD52 induction by ATRA, flow cytometry, U937; format: cell-based; settings: U937, ATRA 96 hours
Description: as §1
(§4) Flow cytometry. APL cells were treated as described above with 1 μM of ATRA for 24, 48, 72, and 96 hrs, and cell differentiation was evaluated by changes in cell morphology, CD11B and CD18 expression, and the NBT reduction test. ATRA treated cells (1×10^6) were stained with CD18-FITC (Becton Dickinson Biosciences San Jose, Calif.), CD11B-PE, and CD52-FITC antibodies (both from Serotec) following manufacturer's instructions. […] Samples were analyzed in triplicate.
(§5) Cell specificity of CD52 expression induction by ATRA. To determine the cell specificity of ATRA-induced CD52 expression, other leukemia cell lines were tested and compared with NB4 under assay conditions used for the NB4 cells.

[8] = tested on: erythroblastic leukemia line K562; experiment: Cell specificity of CD52 induction by ATRA, flow cytometry, K562; format: cell-based; settings: K562, ATRA 96 hours
Description: as §1, §4, §5

HL-60 cells = experiment: Cell specificity of CD52 induction by ATRA, flow cytometry, HL-60; format: cell-based, human; settings: HL-60, lacking t(15;17), ATRA 96 hours
Description: as §1
as §3, with “The cDNA was amplified for 30 cycles with denaturation at 94° C. for 30 seconds, annealing at 56° C. for 30 seconds and extension at 72° C. for 1 min. Amplified products were sequenced and confirmed by comparison with sequence data from GenBank.” left out
Flow cytometry. APL cells were treated as described above with 1 μM of ATRA for 24, 48, 72, and 96 hrs, and cell differentiation was evaluated by changes in cell morphology, CD11B and CD18 expression, and the NBT reduction test. […] Samples were analyzed in triplicate. […]

newly diagnosed APL = settings: ATRA therapy; cited from earlier work
NB4 cells [9] = experiment: cDNA microarray analysis of ATRA-induced NB4 cell gene expression; settings: 96 hr
NB4 cells [10] = experiment: Flow cytometry of CD52, CD11B, CD18 surface expression in NB4 cells

## CAMPATH-1H: A humanized anti-CD52 monoclonal antibody
[1]
  depletion of normal and malignant lymphocytes in vivo: extremely effective

## CC1=C(/C=C/C(C)=C/C=C/C(C)=C/CO)C(C)(C)CCC1 [retinol]
[2]
  solubility in ethanol, methanol, ether, fats, and oil: soluble
  solubility in water or aqueous salt solutions: practically insoluble

## CC1=C(/C=C/C(C)=C/C=C/C(C)=C/C(=O)O)C(C)(C)CCC1 [ATRA, all-trans-retinoic acid]
NB4 cells [3]; 24 to 96 hrs and later
  maximal differentiation (CD11B+ and NBT+ cells): 85%
NB4 cells [3]; end of 24 hrs
  morphologic change in NB4 cells: No obvious morphologic change
NB4 cells [3]; flow cytometry
  CD16 expression: failed to express CD16
NB4 cells [4]
  S-phase cells: decrease of S-phase cells
NB4 cells [5]
  expression of CD52 mRNA: rapidly induced
NB4 cells [6]
  CD52 protein bands of 21-28 kDa: only detected in ATRA-treated cells
[7]
  expression of CD11B: slightly increased
  expression of CD52: did not affect
[8]
  CD11B expression: did not induce
  CD52 expression: did not induce
HL-60 cells
  CD52 up-regulation: not up-regulated
Newly diagnosed APL
  complete remission of patients: up to 85%
NB4 cells [9]; 1 μM ATRA, peak
  CD52 mRNA expression, fold over control: 6.49 fold
NB4 cells [9]; ATRA
  expression of gene gf206—339D4, fold of control: more than 58 fold
NB4 cells [10]; 1 μM ATRA, 48 to 96 hr
  maximal CD52 surface expression: ~90%
NB4 cells [10]; 96 hr of ATRA exposure
  cell population co-expressing CD11B and CD52: approximately 80%
  cells expressing only CD11B: approximately 10%
  cells expressing only CD52: approximately 5%
NB4 cells [10]; NB4, ATRA 96 hours
  up-regulation of both CD11B and CD52: robust up-regulation
